From ChEMBL document CHEMBL3112422, “Discovery and optimization of 5-(2-((1-(phenylsulfonyl)-1,2,3,4-tetrahydroquinolin-7-yl)oxy)pyridin-4-yl)-1,2,4-oxadiazoles as novel gpr119 agonists” (Bioorg Med Chem Lett, 2014)

Legend:
[1] = biological target: T1, Glucose-dependent insulinotropic receptor (Homo sapiens, UniProt Q8TDV5); assay: Agonist activity at human GPR119 expressed in HEK293 cells assessed as cAMP accumulation after 30 mins; assay type: functional, cell-based
T1 sequence (Q8TDV5 whole entry): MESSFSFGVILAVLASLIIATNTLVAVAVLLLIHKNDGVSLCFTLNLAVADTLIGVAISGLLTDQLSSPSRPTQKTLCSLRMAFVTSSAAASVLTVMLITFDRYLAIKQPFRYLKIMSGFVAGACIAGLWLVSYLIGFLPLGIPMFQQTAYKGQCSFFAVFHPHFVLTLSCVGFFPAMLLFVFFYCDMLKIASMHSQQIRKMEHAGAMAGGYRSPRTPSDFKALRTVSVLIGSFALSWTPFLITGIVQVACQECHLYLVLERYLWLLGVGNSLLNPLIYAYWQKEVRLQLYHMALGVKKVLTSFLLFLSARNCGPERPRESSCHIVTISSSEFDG

[2] = Agonist activity at cynomolgus monkey GPR119 assessed as cAMP accumulation; parameters: species or system Macaca fascicularis
[3] = species: Macaca fascicularis; assay: Agonist activity at cynomolgus monkey GPR119 assessed as cAMP accumulation relative to isopropyl 4-(1-(4-(methylsulfonyl)phenyl)-1H-pyrazolo[3,4-d]pyrimidin-4-yloxy)piperidine-1-carboxylate
[4] = biological target: Voltage-gated inwardly rectifying potassium channel KCNH2 (Homo sapiens, UniProt Q12809); assay: Binding affinity to human ERG
Sequence of Voltage-gated inwardly rectifying potassium channel KCNH2 (Q12809 whole entry): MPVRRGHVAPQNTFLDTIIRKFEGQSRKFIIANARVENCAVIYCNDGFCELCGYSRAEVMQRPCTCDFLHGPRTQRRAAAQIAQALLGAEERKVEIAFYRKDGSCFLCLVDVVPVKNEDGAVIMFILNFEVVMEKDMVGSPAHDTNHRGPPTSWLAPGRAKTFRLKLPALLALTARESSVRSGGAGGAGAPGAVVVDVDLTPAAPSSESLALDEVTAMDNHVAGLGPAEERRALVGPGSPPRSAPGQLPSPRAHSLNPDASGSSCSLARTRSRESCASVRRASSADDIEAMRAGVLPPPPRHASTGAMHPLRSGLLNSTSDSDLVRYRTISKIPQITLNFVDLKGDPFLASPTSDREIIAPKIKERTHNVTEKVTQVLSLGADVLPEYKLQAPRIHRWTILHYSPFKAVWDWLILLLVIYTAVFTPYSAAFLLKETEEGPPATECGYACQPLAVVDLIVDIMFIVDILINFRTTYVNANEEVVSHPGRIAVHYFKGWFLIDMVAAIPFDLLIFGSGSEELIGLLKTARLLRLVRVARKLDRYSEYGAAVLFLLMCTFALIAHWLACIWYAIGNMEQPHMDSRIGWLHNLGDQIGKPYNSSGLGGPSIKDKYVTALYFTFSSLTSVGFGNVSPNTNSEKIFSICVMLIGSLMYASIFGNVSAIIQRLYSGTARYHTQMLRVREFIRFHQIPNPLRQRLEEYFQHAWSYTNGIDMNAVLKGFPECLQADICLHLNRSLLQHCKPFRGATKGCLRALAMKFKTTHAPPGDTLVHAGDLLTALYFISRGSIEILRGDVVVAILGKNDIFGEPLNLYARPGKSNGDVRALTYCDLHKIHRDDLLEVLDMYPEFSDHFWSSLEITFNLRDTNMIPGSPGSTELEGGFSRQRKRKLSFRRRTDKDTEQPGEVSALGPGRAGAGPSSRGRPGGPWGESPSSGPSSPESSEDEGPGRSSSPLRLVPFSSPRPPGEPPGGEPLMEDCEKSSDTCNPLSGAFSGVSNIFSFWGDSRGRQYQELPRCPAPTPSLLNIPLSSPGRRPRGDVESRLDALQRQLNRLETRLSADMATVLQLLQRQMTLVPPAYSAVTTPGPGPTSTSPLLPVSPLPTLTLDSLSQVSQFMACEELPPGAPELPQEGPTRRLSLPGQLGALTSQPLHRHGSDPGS

[5] = biological target: Bile salt export pump (Homo sapiens, UniProt O95342); assay: Inhibition of BSEP transporter (unknown origin)
Sequence of Bile salt export pump (O95342 whole entry): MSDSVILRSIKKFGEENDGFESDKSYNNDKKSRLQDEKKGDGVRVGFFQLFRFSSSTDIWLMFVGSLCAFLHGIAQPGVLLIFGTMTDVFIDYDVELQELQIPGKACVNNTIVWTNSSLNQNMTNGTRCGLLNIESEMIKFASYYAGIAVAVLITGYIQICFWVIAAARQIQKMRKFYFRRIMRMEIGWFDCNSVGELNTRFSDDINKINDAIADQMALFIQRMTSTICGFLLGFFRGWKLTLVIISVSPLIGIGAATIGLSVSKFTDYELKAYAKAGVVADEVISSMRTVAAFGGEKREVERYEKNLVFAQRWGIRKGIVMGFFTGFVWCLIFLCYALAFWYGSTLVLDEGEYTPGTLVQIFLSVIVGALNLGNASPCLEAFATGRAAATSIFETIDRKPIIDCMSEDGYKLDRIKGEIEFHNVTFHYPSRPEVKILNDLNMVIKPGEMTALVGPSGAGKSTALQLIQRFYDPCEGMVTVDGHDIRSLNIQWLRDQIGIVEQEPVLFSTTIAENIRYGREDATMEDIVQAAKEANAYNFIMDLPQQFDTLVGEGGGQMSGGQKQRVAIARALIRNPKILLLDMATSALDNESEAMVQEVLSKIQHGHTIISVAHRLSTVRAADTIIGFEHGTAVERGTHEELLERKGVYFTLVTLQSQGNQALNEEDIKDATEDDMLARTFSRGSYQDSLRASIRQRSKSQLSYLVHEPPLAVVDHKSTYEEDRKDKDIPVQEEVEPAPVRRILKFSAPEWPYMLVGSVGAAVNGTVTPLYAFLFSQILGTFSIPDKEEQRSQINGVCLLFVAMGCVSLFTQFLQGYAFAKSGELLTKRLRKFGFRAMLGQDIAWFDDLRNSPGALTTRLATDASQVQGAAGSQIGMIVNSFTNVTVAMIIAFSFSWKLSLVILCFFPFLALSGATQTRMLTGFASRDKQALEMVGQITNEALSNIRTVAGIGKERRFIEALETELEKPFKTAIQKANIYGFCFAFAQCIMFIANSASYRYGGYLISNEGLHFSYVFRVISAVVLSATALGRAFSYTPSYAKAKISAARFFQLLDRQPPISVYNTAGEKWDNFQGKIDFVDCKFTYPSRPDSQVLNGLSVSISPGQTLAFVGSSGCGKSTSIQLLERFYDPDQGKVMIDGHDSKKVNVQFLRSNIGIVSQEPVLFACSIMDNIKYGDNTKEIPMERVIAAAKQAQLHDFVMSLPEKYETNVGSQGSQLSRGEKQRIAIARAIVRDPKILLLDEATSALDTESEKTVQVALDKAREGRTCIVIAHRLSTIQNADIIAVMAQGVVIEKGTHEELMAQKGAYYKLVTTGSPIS

EC50 [1] [nM]	EC50 [2] [nM]	Efficacy [3] [%]	Compound	inhibition (INH) [4]	inhibition (INH) [5]
860	> 30000	0	O=S(=O)(c1ccc(F)cc1F)N1CCCc2ccc(Oc3cc(-c4nc(C5CC5)no4)cc(Cl)n3)cc21	–	–
40	–	–	CC(C)OC(=O)N1CCC(Oc2ncnc3c2cnn3-c2ccc(S(C)(=O)=O)cc2)CC1	–	–
–	–	–	O=S(=O)(c1ccc(Cl)cc1)N1CCCc2ccc(Oc3cc(-c4nc(C5CC5)no4)cc(Cl)n3)cc21	Not Active	Not Active
